Assay results: PubChem BioAssay (NCI)
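Five compound concentrations were applied to cells in 96-well plates for 48 hours; endpoints were derived by simple linear interpolation of the resulting dose-response curve. TGI is the concentration that stops growth completely.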

How the values were obtained:
Assay in all cases: DTP human tumour cell line panel, 48 h
NCI-H226 lung = test system: NCI-H226 lung
SF-268 CNS = test system: SF-268 CNS
TK-10 renal = test system: TK-10 renal
OVCAR-8 ovarian = test system: OVCAR-8 ovarian
RPMI-8226 leukemia = test system: RPMI-8226 leukemia
UACC-62 melanoma = test system: UACC-62 melanoma
SNB-75 CNS = test system: SNB-75 CNS
SR leukemia = test system: SR leukemia
HCT-116 colon = test system: HCT-116 colon
SK-MEL-5 melanoma = test system: SK-MEL-5 melanoma
SW-620 colon = test system: SW-620 colon
MDA-N = test system: MDA-N
SK-MEL-28 melanoma = test system: SK-MEL-28 melanoma
786-0 renal = test system: 786-0 renal

## Cc1ccccc1OC(C)C(=O)NN1C(=O)CSC1c1ccc(Cl)cc1 (centres undefined)
NCI-H226 lung
  TGI: > 82.6 µM
SF-268 CNS
  TGI: > 67.4 µM
TK-10 renal
  TGI: > 100 µM
OVCAR-8 ovarian
  TGI: > 100 µM
RPMI-8226 leukemia
  TGI: > 61 µM
UACC-62 melanoma
  TGI: > 100 µM
SNB-75 CNS
  TGI: > 100 µM
SR leukemia
  TGI: > 46.3 µM
HCT-116 colon
  TGI: > 95.5 µM
SK-MEL-5 melanoma
  TGI: > 100 µM
SW-620 colon
  TGI: > 81.2 µM
MDA-N
  TGI: > 100 µM
SK-MEL-28 melanoma
  TGI: > 100 µM
786-0 renal
  TGI: 34.8 µM

## COc1ccc2nc(-c3ccccc3)cc(OCC(=O)O)c2c1
NCI-H226 lung
  TGI: > 100 µM
SF-268 CNS
  TGI: > 100 µM
TK-10 renal
  TGI: > 100 µM
OVCAR-8 ovarian
  TGI: > 100 µM
RPMI-8226 leukemia
  TGI: > 100 µM
UACC-62 melanoma
  TGI: > 100 µM
SNB-75 CNS
  TGI: > 100 µM
SR leukemia
  TGI: > 100 µM
HCT-116 colon
  TGI: > 100 µM
SK-MEL-5 melanoma
  TGI: > 100 µM
SW-620 colon
  TGI: > 100 µM
MDA-N
  TGI: > 100 µM
SK-MEL-28 melanoma
  TGI: > 100 µM
786-0 renal
  TGI: > 100 µM

## O=C(/C=C/c1cccc(Oc2ccccc2)c1)NCc1ccc(C(=O)NCc2ccccc2)cc1
NCI-H226 lung
  TGI: 88.1 µM
SF-268 CNS
  TGI: > 100 µM
TK-10 renal
  TGI: > 100 µM
OVCAR-8 ovarian
  TGI: > 100 µM
RPMI-8226 leukemia
  TGI: > 100 µM
UACC-62 melanoma
  TGI: > 100 µM
SNB-75 CNS
  TGI: 53.3 µM
SR leukemia
  TGI: > 100 µM
HCT-116 colon
  TGI: > 100 µM
SK-MEL-5 melanoma
  TGI: > 100 µM
SW-620 colon
  TGI: > 100 µM
MDA-N
  TGI: > 100 µM
SK-MEL-28 melanoma
  TGI: > 100 µM
786-0 renal
  TGI: > 100 µM

## COC(=O)C1Cc2cc3c(cc2C1=O)CCCC3 (centres undefined)
NCI-H226 lung
  TGI: 87 µM
SF-268 CNS
  TGI: > 100 µM
TK-10 renal
  TGI: > 100 µM
OVCAR-8 ovarian
  TGI: > 100 µM
RPMI-8226 leukemia
  TGI: > 100 µM
UACC-62 melanoma
  TGI: > 100 µM
SNB-75 CNS
  TGI: > 100 µM
SR leukemia
  TGI: > 100 µM
HCT-116 colon
  TGI: > 100 µM
SK-MEL-5 melanoma
  TGI: > 100 µM
SW-620 colon
  TGI: > 100 µM
MDA-N
  TGI: > 100 µM
SK-MEL-28 melanoma
  TGI: > 100 µM
786-0 renal
  TGI: > 100 µM

## CC(C)(C)OC(=O)NC1CC2(C=C(Br)C(=O)C(Br)=C2)OC1=O (centres undefined)
NCI-H226 lung
  TGI: 40.6 µM
SF-268 CNS
  TGI: 32.2 µM
TK-10 renal
  TGI: 12.2 µM
OVCAR-8 ovarian
  TGI: 21.4 µM
RPMI-8226 leukemia
  TGI: 4.21 µM
UACC-62 melanoma
  TGI: 32.4 µM
SNB-75 CNS
  TGI: 36.7 µM
SR leukemia
  TGI: 4.18 µM
HCT-116 colon
  TGI: 9.21 µM
SK-MEL-5 melanoma
  TGI: 31.1 µM
SW-620 colon
  TGI: 5.79 µM
MDA-N
  TGI: 15.3 µM
SK-MEL-28 melanoma
  TGI: 37.9 µM
786-0 renal
  TGI: 7.5 µM

## c1ccc2c(c1)c1c(n2CCOCCN2CCCC2)CCCC1
NCI-H226 lung
  TGI: 49.5 µM
SF-268 CNS
  TGI: > 100 µM
TK-10 renal
  TGI: 37 µM
OVCAR-8 ovarian
  TGI: 57.6 µM
RPMI-8226 leukemia
  TGI: 42.2 µM
UACC-62 melanoma
  TGI: 33.7 µM
SNB-75 CNS
  TGI: 76 µM
SR leukemia
  TGI: 35.2 µM
HCT-116 colon
  TGI: 32.5 µM
SK-MEL-5 melanoma
  TGI: 30.3 µM
SW-620 colon
  TGI: 32.1 µM
MDA-N
  TGI: 35.8 µM
SK-MEL-28 melanoma
  TGI: 29.4 µM
786-0 renal
  TGI: 29.6 µM

## CC[C@@]1(O)C(=O)OCc2c1cc1n(c2=O)Cc2c-1nc1ccccc1c2/C=N\NC(=O)C1CCCN1 (some centres undefined)
NCI-H226 lung
  TGI: 2.8 µM
SF-268 CNS
  TGI: 3.96 µM
TK-10 renal
  TGI: > 100 µM
OVCAR-8 ovarian
  TGI: 10.9 µM
RPMI-8226 leukemia
  TGI: > 59.7 µM
UACC-62 melanoma
  TGI: 0.653 µM
SNB-75 CNS
  TGI: 1.8 µM
SR leukemia
  TGI: 1.73 µM
HCT-116 colon
  TGI: 21.2 µM
SK-MEL-5 melanoma
  TGI: 2.25 µM
SW-620 colon
  TGI: > 73.8 µM
MDA-N
  TGI: > 100 µM
SK-MEL-28 melanoma
  TGI: > 100 µM
786-0 renal
  TGI: 8.01 µM

## NC(N)=NC(N)=Nc1ccc(S(=O)(=O)O)cc1
NCI-H226 lung
  TGI: > 100 µM
SF-268 CNS
  TGI: > 100 µM
TK-10 renal
  TGI: > 100 µM
OVCAR-8 ovarian
  TGI: > 100 µM
RPMI-8226 leukemia
  TGI: > 100 µM
UACC-62 melanoma
  TGI: > 100 µM
SNB-75 CNS
  TGI: > 100 µM
SR leukemia
  TGI: > 100 µM
HCT-116 colon
  TGI: > 100 µM
SK-MEL-5 melanoma
  TGI: > 100 µM
SW-620 colon
  TGI: > 100 µM
MDA-N
  TGI: > 100 µM
SK-MEL-28 melanoma
  TGI: > 100 µM
786-0 renal
  TGI: > 100 µM

## O=C(O)CCS/C(=C\C(SCCC(=O)O)c1ccc(Cl)cc1)c1ccc(Cl)cc1 (centres undefined)
NCI-H226 lung
  TGI: > 100 µM
SF-268 CNS
  TGI: > 100 µM
TK-10 renal
  TGI: > 100 µM
OVCAR-8 ovarian
  TGI: > 100 µM
RPMI-8226 leukemia
  TGI: 95.6 µM
UACC-62 melanoma
  TGI: 38.4 µM
SNB-75 CNS
  TGI: > 100 µM
SR leukemia
  TGI: 78.5 µM
HCT-116 colon
  TGI: 57.5 µM
SK-MEL-5 melanoma
  TGI: > 100 µM
SW-620 colon
  TGI: > 100 µM
MDA-N
  TGI: > 100 µM
SK-MEL-28 melanoma
  TGI: > 100 µM
786-0 renal
  TGI: > 100 µM

## [O-][N+](=Nc1ccccc1CO)c1ccccc1CO
NCI-H226 lung
  TGI: > 100 µM
SF-268 CNS
  TGI: > 100 µM
TK-10 renal
  TGI: > 100 µM
OVCAR-8 ovarian
  TGI: > 100 µM
RPMI-8226 leukemia
  TGI: > 100 µM
UACC-62 melanoma
  TGI: > 100 µM
SNB-75 CNS
  TGI: > 100 µM
SR leukemia
  TGI: > 100 µM
HCT-116 colon
  TGI: > 100 µM
SK-MEL-5 melanoma
  TGI: > 100 µM
SW-620 colon
  TGI: > 100 µM
MDA-N
  TGI: > 100 µM
SK-MEL-28 melanoma
  TGI: > 100 µM
786-0 renal
  TGI: > 100 µM

## Cc1c2c3ccccc3nc-2n(C)c2ccccc12
NCI-H226 lung
  TGI: 8.52 µM
SF-268 CNS
  TGI: 19.1 µM
TK-10 renal
  TGI: 9.09 µM
OVCAR-8 ovarian
  TGI: 15.1 µM
RPMI-8226 leukemia
  TGI: 52.7 µM
UACC-62 melanoma
  TGI: 3.67 µM
SNB-75 CNS
  TGI: 7.75 µM
SR leukemia
  TGI: 25.2 µM
HCT-116 colon
  TGI: > 100 µM
SK-MEL-5 melanoma
  TGI: 2.2 µM
SW-620 colon
  TGI: 12.9 µM
MDA-N
  TGI: 14.5 µM
SK-MEL-28 melanoma
  TGI: 12.5 µM
786-0 renal
  TGI: 13 µM

## OC1(c2ccc(-c3ccccc3)cc2)c2ccccc2C2=NCCN21 (centres undefined)
NCI-H226 lung
  TGI: 62 µM
SF-268 CNS
  TGI: > 100 µM
TK-10 renal
  TGI: > 100 µM
RPMI-8226 leukemia
  TGI: > 100 µM
UACC-62 melanoma
  TGI: 53.1 µM
SNB-75 CNS
  TGI: 48.9 µM
SR leukemia
  TGI: > 100 µM
HCT-116 colon
  TGI: > 100 µM
SK-MEL-5 melanoma
  TGI: 43.6 µM
SW-620 colon
  TGI: > 100 µM
MDA-N
  TGI: > 100 µM
SK-MEL-28 melanoma
  TGI: 80.6 µM
786-0 renal
  TGI: 33.1 µM

## COc1ccc(-n2c(N)c(C#N)[nH]c2=O)cc1
NCI-H226 lung
  TGI: > 10 µM
SF-268 CNS
  TGI: > 10 µM
TK-10 renal
  TGI: > 10 µM
OVCAR-8 ovarian
  TGI: > 10 µM
RPMI-8226 leukemia
  TGI: > 10 µM
UACC-62 melanoma
  TGI: > 10 µM
SNB-75 CNS
  TGI: > 10 µM
SR leukemia
  TGI: > 10 µM
HCT-116 colon
  TGI: > 10 µM
SK-MEL-5 melanoma
  TGI: > 10 µM
SW-620 colon
  TGI: > 10 µM
MDA-N
  TGI: > 10 µM
SK-MEL-28 melanoma
  TGI: > 10 µM
786-0 renal
  TGI: > 10 µM

## CSc1ccc(-c2cc(-c3nc4ccccc4[nH]3)no2)cc1
NCI-H226 lung
  TGI: > 100 µM
SF-268 CNS
  TGI: > 100 µM
TK-10 renal
  TGI: > 100 µM
OVCAR-8 ovarian
  TGI: > 100 µM
RPMI-8226 leukemia
  TGI: 98 µM
UACC-62 melanoma
  TGI: 39.1 µM
SNB-75 CNS
  TGI: > 100 µM
SR leukemia
  TGI: > 100 µM
HCT-116 colon
  TGI: > 100 µM
SK-MEL-5 melanoma
  TGI: 33.4 µM
SW-620 colon
  TGI: > 100 µM
MDA-N
  TGI: > 100 µM
SK-MEL-28 melanoma
  TGI: > 100 µM
786-0 renal
  TGI: > 100 µM

## O=C(c1nc2ccc([N+](=O)[O-])cc2[nH]c1=O)C(O)c1ccc2c(c1)OCO2 (centres undefined)
NCI-H226 lung
  TGI: > 100 µM
SF-268 CNS
  TGI: > 100 µM
TK-10 renal
  TGI: > 100 µM
OVCAR-8 ovarian
  TGI: > 100 µM
RPMI-8226 leukemia
  TGI: > 100 µM
UACC-62 melanoma
  TGI: > 100 µM
SNB-75 CNS
  TGI: > 100 µM
SR leukemia
  TGI: > 100 µM
HCT-116 colon
  TGI: > 100 µM
SK-MEL-5 melanoma
  TGI: > 100 µM
SW-620 colon
  TGI: > 100 µM
MDA-N
  TGI: > 100 µM
SK-MEL-28 melanoma
  TGI: > 100 µM
786-0 renal
  TGI: > 100 µM
